The source of these data is patent US20210032253A1, “PYRAZOLO[1,5-A][1,3,5]TRIAZINE-2-AMINE DERIVATIVE, PREPARATION METHOD THEREFOR AND MEDICAL USE THEREOF” (JIANGSU HENGRUI MEDICINE CO., LTD., priority 2018, published 2021).

The term IC50 denotes the concentration at which inhibition is half-maximal.

Each structure is given as a SMILES string.

Common to all, as to assay type: cell-based
In test [1] the target is T1, adenosine A3 receptor (A3R) (Homo sapiens, UniProt P0DMS8).
T1 construct: expressed in transfected cells; host or cells: CHO-K1
T1 sequence (P0DMS8 1-318): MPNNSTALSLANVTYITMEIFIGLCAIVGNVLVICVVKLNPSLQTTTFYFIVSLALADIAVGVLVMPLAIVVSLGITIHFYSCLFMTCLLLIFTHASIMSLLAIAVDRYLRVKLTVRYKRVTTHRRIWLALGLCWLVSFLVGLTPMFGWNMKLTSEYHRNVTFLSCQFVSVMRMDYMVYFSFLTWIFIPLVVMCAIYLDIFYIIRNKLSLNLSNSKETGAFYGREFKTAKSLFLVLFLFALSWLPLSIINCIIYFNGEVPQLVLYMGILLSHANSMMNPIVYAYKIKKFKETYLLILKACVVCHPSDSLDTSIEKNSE
In words: Inhibition of adenosine A3 receptor cAMP signaling pathway in CHO-K1/A3R cells (HTRF cAMP dynamic 2 kit). To be noted: Table 3; for IC50: CHO-K1/A3R cells, cAMP, 10 μM forskolin, 5 nM 2Cl-IB-MECA; for IC50 ratio (A3R/A2aR): selectivity A3R over A2aR. An excerpt: (§1) Test Example 1. Determination of the inhibitory activities of the compounds of the present disclosure on the adenosine A2a receptor (A2aR) cAMP signaling pathway, the adenosine A1 receptor (A1R) cAMP signaling pathway and the adenosine A3 receptor (A3R) cAMP signaling pathway.
(§2) The inhibitory activities of the compounds of the present disclosure on the adenosine A2a receptor (A2aR) cAMP signaling pathway, the adenosine A1 receptor cAMP signaling pathway and the adenosine A3 receptor cAMP signaling pathway were determined by the following methods. The experimental method is briefly described as follows:
CHO-K1/A3R cells were cultured in DMEMIF12 medium containing 10% fetal bovine serum and 10 μg/mL puromycin. The cells were digested with the cell dissociation buffer during the experiment. The cells were resuspended in the HBSS buffer containing 20 mM HEPES and 0.1% bovine serum albumin and counted, and the cell density was adjusted to 5×10^5 cells/mL. In 384-well plates, each well was added with 12.5 μL of the cell suspension, and 6.25 μL of the test compounds (4× concentration) formulated with the HBSS buffer containing 20 mM HEPES, 0.1% bovine serum albumin, 54 μM rolipram and 2.7 U/mL adenosine deaminase, and the plates were incubated at room temperature for 30 minutes. Each well was then added with 6.25 μL of forskolin and 2Cl-IB-MECA (4× concentration) formulated with the HBSS buffer containing 20 mM HEPES, 0.1% bovine serum albumin, […] rolipram and 2.7 U/mL adenosine deaminase, and the plates were incubated at room temperature for 30 minutes. The final concentrations of the compounds were: 100000, 10000, 1000, 100, 10, 1, 0.1 and 0 nM. The final concentration of forskolin was 10 μM. The final concentration of 2Cl-IB-MECA was 5 nM. Intracellular cAMP concentration was determined with cAMP dynamic 2 kits. cAMP-d2 and Anti-cAMP—Eu-Cryptate were diluted respectively with the cAMP lysis buffer at a ratio of 1:4. Each well was added with 12.5 μL of the diluted cAMP-d2, followed by addition of 12.5 μL of the diluted Anti-cAMP—Eu-Cryptate, and the plates were incubated at room temperature in the dark for 1 hour. The HTRF signal values were read by the PHERAstar multi-function microplate reader. IC50 values for the inhibitory activities of the compounds were calculated by Graphpad Prism software, and are shown in Table 3.
(In general: TR-FRET usually uses a lanthanide donor and a delayed reading to cut background.)

Test [2] deals with T2, adenosine A1 receptor (A1R) (Homo sapiens, UniProt P30542).
T2 construct: expressed in transfected cells; host or cells: CHO-K1
T2 sequence (P30542 1-326): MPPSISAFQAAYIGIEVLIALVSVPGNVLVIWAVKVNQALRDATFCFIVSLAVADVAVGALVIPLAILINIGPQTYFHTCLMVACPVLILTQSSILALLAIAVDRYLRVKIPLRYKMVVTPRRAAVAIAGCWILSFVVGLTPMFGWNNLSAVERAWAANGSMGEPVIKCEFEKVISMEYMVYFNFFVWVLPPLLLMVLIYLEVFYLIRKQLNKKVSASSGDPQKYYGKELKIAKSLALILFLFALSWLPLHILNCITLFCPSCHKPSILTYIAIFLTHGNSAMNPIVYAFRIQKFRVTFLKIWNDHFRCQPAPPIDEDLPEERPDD
In words: Inhibition of adenosine A1 receptor cAMP signaling pathway in CHO-K1/A1R cells (HTRF cAMP dynamic 2 kit). To be noted: Table 2; for IC50: CHO-K1/A1R cells, cAMP, 10 μM forskolin, 10 nM CPA; for IC50 ratio (A1R/A2aR): selectivity A1R over A2aR.
From the text: as §1, §2
CHO-K1/A1R cells were cultured in DMEMIF12 medium containing 10% fetal bovine serum and 1 mg/mL G418. The cells were digested with the cell dissociation buffer during the experiment. The cells were then resuspended in the HBSS buffer containing 20 mM HEPES and 0.1% bovine serum albumin and counted, and the cell density was adjusted to 5×10^5 cells/mL. In 384-well plates, each well was added with 12.5 μL of the cell suspension, and 6.25 μL of the test compounds (4× concentration) formulated with the HBSS buffer containing 20 mM HEPES, 0.1% bovine serum albumin, 54 μM rolipram and 2.7 U/mL adenosine deaminase, and the plates were incubated at room temperature for 30 minutes. Each well was then added with 6.25 μL of forskolin and N6-cyclopentyladenosine (4× concentration) formulated with the HBSS buffer containing 20 mM HEPES, 0.1% bovine serum albumin, 54 μM rolipram and 2.7 U/mL adenosine deaminase, and the plates were incubated at room temperature for 30 minutes. The final concentrations of the compounds were: 100000, 10000, 1000, 100, 10, 1, 0.1 and 0 nM. The final concentration of forskolin was 10 μM. The final concentration of CPA was 10 nM. Intracellular cAMP concentration was determined with cAMP dynamic 2 kits. cAMP-d2 and Anti-cAMP—Eu-Cryptate were diluted respectively with the cAMP lysis buffer at a ratio of 1:4. Each well was added with 12.5 μL of the diluted cAMP-d2, followed by addition of 12.5 μL of the diluted Anti-cAMP—Eu-Cryptate, and the plates were incubated at room temperature in the dark for 1 hour. The HTRF signal values were read by the PHERAstar multi-function microplate reader.

Test [3] addresses T3, adenosine A2a receptor (A2aR) (Homo sapiens, UniProt P29274).
T3 construct: expressed in transfected cells; host or cells: CHO-K1
The test can be described thus: Inhibition of adenosine A2a receptor cAMP signaling pathway in CHO-K1/A2aR cells (HTRF cAMP dynamic 2 kit). To be noted: Table 1, 20 nM ethylcarbazole.
From the text: as §1, §2
CHO-K1/A2aR cells were cultured in DMEM/F12 medium containing 10% fetal bovine serum and 800 μg/mL Zeocin™. The cells were digested with the cell dissociation buffer during the experiment. The cells were resuspended in the HBSS buffer containing 20 mM HEPES and 0.1% bovine serum albumin and counted, and the cell density was adjusted to 10^6 cells/mL. In 384-well plates, each well was added with 5 μL of the cell suspension, and 2.5 µL of test compounds (4× concentration) formulated with the HBSS buffer containing 20 mM HEPES, 0.1% bovine serum albumin, 54 μM rolipram and 2.7 U/mL adenosine deaminase, and the plates were incubated at room temperature for 30 minutes. Each well was then added with 2.5 μL of ethylcarbazole (4× concentration) formulated with the balanced salt buffer containing 20 mM HEPES, 0.1% bovine serum albumin, 54 μM rolipram and 2.7 U/mL adenosine deaminase, and the plates were incubated at room temperature for 30 minutes. The final concentrations of the compounds were: 10000, 2000, 400, 80, 16, 3.2, 0.64, 0.128, 0.0256, 0.00512, and 0.001024 nM. The final concentration of ethylcarbazole was 20 nM. Intracellular cAMP concentration was determined with cAMP dynamic 2 kits. cAMP-d2 and Anti-cAMP—Eu-Cryptate were diluted respectively with the cAMP lysis buffer at a ratio of 1:4. Each well was added with 5 μL of the diluted cAMP-d2, followed by addition of 5 μL of the diluted Anti-cAMP—Eu-Cryptate, and the plates were incubated at room temperature in the dark for 1 hour. The HTRF signal values were read by the PHERAstar multi-function microplate reader.

T3 sequence (P29274 whole entry): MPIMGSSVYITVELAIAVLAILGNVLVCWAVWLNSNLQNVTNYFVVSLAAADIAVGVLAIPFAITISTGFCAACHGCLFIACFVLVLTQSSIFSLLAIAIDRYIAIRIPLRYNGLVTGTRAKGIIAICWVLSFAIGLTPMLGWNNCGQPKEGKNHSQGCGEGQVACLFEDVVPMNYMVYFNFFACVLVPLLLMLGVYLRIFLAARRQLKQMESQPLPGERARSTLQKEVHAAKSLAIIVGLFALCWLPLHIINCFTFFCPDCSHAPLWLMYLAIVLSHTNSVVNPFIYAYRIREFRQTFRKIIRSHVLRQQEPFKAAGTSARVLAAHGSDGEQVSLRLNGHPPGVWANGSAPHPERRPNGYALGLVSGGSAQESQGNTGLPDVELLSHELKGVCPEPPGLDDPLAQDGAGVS

In the case of `Cc1ccc(-c2nc(N)nc3c(Nc4cccc(CO[C@H]5CCOC5)c4)cnn23)o1` [Example 25, (S)-4-(5-Methylfuran-2-yl)-N^8-(3-(((tetrahydrofuran-3-yl)oxy)methyl)phenyl)pyrazolo[1,5-a][1,3,5]triazine-2,8-diamine], in test [1], the IC50 amounted to 8150 nM and the “IC50 ratio (A3R/A2aR)” value is recorded as >10^3. Besides, in test [2], inhibition was half-maximal at 2040 nM (IC50) and the “IC50 ratio (A1R/A2aR)” value is recorded as >10^3. The molecule further returned a half-inhibitory concentration (IC50) in test [3] of 1.64 nM.
For the molecule `COCc1cccc(Cc2cnn3c(-c4ccc(C)o4)nc(N)nc23)n1` [Example 13, 8-((6-(Methoxymethyl)pyridin-2-yl)methyl)-4-(5-methylfuran-2-yl)pyrazolo[1,5-a][1,3,5]triazin-2-amine], the IC50 came out at 5500 nM in test [1], 1230 nM in test [2] and 1.7 nM in test [3]. Also, the “IC50 ratio (A3R/A2aR)” value in test [1] is given as >10^3. In addition, the “IC50 ratio (A1R/A2aR)” value in test [2] was 725^.
In the same order, the values of `Cc1ccc(-c2nc(N)nc3c(Cc4cccc(CN5CCOCC5)n4)cnn23)o1` [Example 5, 4-(5-Methylfuran-2-yl)-8-((6-(morpholinomethyl)pyridin-2-yl)methyl)pyrazolo[1,5-a][1,3,5]triazin-2-amine] are 2280 nM, 835 nM, 0.55 nM, >10^3 and >10^3.
In the same order, the values of `Cc1ccc(-c2nc(N)nc3c(Nc4cccc(CO[C@H]5CCOC5)c4F)cnn23)o1` [Example 26, (S)—N^8-(2-fluoro-3-(((tetrahydrofuran-3-yl)oxy)methyl)phenyl)-4-(5-methylfuran-2-yl)pyrazolo[1,5-a][1,3,5]triazine-2,8-diamine] are 5300 nM, 1210 nM, 1.66 nM, >10^3 and 731^.
In the same order, the values of `Cc1ccc(-c2nc(N)nc3c(Cc4cccc(CN5CCN(C)CC5)n4)cnn23)o1` [Example 8, 4-(5-Methylfuran-2-yl)-8-((6-((4-methylpiperazin-1-yl)methyl)pyridin-2-yl)methyl)pyrazolo[1,5-a][1,3,5]triazin-2-amine] are 6490 nM, 943 nM, 1.32 nM, >10^3 and 714^.
For the molecule `Cc1ccc(-c2nc(N)nc3c(Cc4cccc(COC5CCCC5)n4)cnn23)o1` [Example 22, 8-((6-((Cyclopentyloxy)methyl)pyridin-2-yl)methyl)-4-(5-methylfuran-2-yl)pyrazolo[1,5-a][1,3,5]triazin-2-amine], in test [1], the IC50 amounted to 1050 nM and the “IC50 ratio (A3R/A2aR)” value is listed as >10^3. In test [2], it took 303 nM to reach half-maximal inhibition (IC50) and the “IC50 ratio (A1R/A2aR)” value is 532^. In test [3], the IC50 came to 0.57 nM.
In the same order, the values of `Cc1ccc(-c2nc(N)nc3c(Cc4cccc(COCCF)n4)cnn23)o1` [Example 14, 8-((6-((2-Fluoroethoxy)methyl)pyridin-2-yl)methyl)-4-(5-methylfuran-2-yl)pyrazolo[1,5-a][1,3,5]triazin-2-amine] are 1390 nM, >10^3, 293 nM, 431^ and 0.68 nM.
In the same order, the values of `COCCOCc1cccc(Cc2cnn3c(-c4ccc(C)o4)nc(N)nc23)n1` [Example 3, 8-((6-((2-Methoxyethoxy)methyl)pyridin-2-yl)methyl)-4-(5-methylfuran-2-yl)pyrazolo[1,5-a][1,3,5]triazin-2-amine] are 4120 nM, >10^3, 434 nM, 964^ and 0.45 nM.
On the same counts, the results for `Cc1ccc(-c2nc(N)nc3c(Nc4cccc(CN5CC6COCC6C5)n4)cnn23)o1` (centres unmarked) [Example 30, 4-(5-Methylfuran-2-yl)-N^8-(6-((tetrahydro-1H-furo[3,4-c]pyrrol-5(3H)-yl)methyl)pyridin-2-yl)pyrazolo[1,5-a][1,3,5]triazine-2,8-diamine] are 7600 nM, >10^3, 684 nM, 238^ and 2.87 nM.
As for `Cc1ccc(-c2nc(N)nc3c(Nc4cccc(CN5CCOCC5)n4)cnn23)o1` [Example 27, 4-(5-Methylfuran-2-yl)-N^8-(6-(morpholinomethyl)pyridin-2-yl)pyrazolo[1,5-a][1,3,5]triazine-2,8-diamine], in test [1], the IC50 is 977 nM and the “IC50 ratio (A3R/A2aR)” value is 514^. Moreover, in test [2], the IC50 worked out at 286 nM and the “IC50 ratio (A1R/A2aR)” value was 150^. Also, the IC50 in test [3] was 1.9 nM.
